Values quoted from earlier work as cited in paper PMC11435065, “Inhibition of P-Glycoprotein Asymmetrically Alters the In Vivo Exposure Profile of SGC003F: A Novel Guanylate Cyclase Stimulator” (Pharmaceuticals, 2024).

Parameters: method as in PMID 24398461
Conditions: rats, one hour after administration, with 1.0 mg/kg tariquidar; cited from earlier work

## CN(C)C(=O)C(CCN1CCC(O)(c2ccc(Cl)cc2)CC1)(c1ccccc1)c1ccccc1 [loperamide]
  Increase of loperamide levels in the brain: 2.3 fold
